Measured values taken from patent US9249466B2, “Methods and compositions for treating cancer” (Agency for Science, Technology and Research, priority 2010, dated 2016).
Entries after “also recorded” stand apart in the source; their conditions may differ.

Key:
SW480 and DLD1 cells = experiment: Apoptotic assay in SW480 and DLD1 cells; type: cell-based, human; details: BI2536 10 nM plus BEZ 235 100 nM, 48 hr
DLD1 and SW480 cells [1] = experiment: Cell viability of DLD1 and SW480 cells under drug combinations; type: cell-based, human; details: SW480 and DLD1 cells, BI 2536 10 nM plus BEZ 235 10 nM
Method: (§1) Cell viability was measured using CellTiter-Glo™ Luminescent Cell Viability Assay (Promega).
(§2) In brief, 1000 cells were seeded in 96-well plate and the cell number was measured following manufacturer's instruction. To detect the senescence in DLD1-tet on cells, cells were treated with Dox for 48 hr and SA-β-Gal staining was performed according to the protocol of Senescence Detection kit (BioVision). Cell cycle analysis was done by DNA content quantification.

HEK-TERV cells = experiment: Apoptotic assay in HEK-TERV cells; type: cell-based, human; details: 10 nM for 24 h; PDK1-transformed vs control or PI3K (E545)-transformed cells
DLD1 and SW480 cells [2] = experiment: Monolayer dense foci / colony formation of DLD1 and SW480 cells; type: cell-based, human; details: monolayer colony formation, 12 days
Method: For DLD1 and HCT116 inducible cells foci formation assay, 1×10^4 cells were seeded on 6-well plate with or without treatment with Dox or rapamcycin. […]

HEK-PDK1 cells = experiment: Tumor sphere formation in HEK-PDK1 cells; type: cell-based, human; details: 5 nM BI2536 for 7 days
[3] = system: p70S6K and S6 phosphorylation; experiment: Immunoblot analysis of p70S6K and S6 phosphorylation; type: cell-based, human; details: DLD1 vector control and PPP2R2B expressing cells, 10 nM rapamycin
[4] = system: PPP2R2B-expressing cancer cell lines; experiment: Rapamycin-induced growth inhibition in PPP2R2B-expressing cancer cell lines; type: cell-based, human; details: 10 nM rapamycin, 5 days; compared to CRC cell lines
Method: as §1, §2

DLD1-PPP2R2B cells [5] = experiment: Xenograft tumor growth of DLD1-PPP2R2B cells in nude mice; type: in vivo, BALB/c nude mice
Method: The female athymice BALB/c nude mice (5-8 week-old) were housed in the Biological Resource Centre. Mice were implanted subcutaneously in both sides of flank with 3×10^6 DLD1-PPP2R2B or control DLD1 cells, respectively.
When tumors reached ˜70 mm^3, the mice were divided two groups (6 mice per group) and the Doxycyclin was administrated by oral gavages at 100 mg/kg daily. Tumor progress was monitored with whole body weight and tumor size for every other day. For combination treatment with rapamycin and doxycycline, the same dose of doxycyclin was given at every other day and rapamycin was administered by intraperitoneal injection at 4 mg/kg at Day 3, 5, 7 and 11.
Tumor diameters were measured every 3-4 days with caliper and tumor volumes were calculated from 7-9 mice per data time point. All animal work was performed in accordance with animal experiments guidelines of Singapore.

adjuvant arthritis = details: model for rheumatoid arthritis; cited from earlier work
Candida albicans = details: in vitro and in vivo; cited from earlier work
[6] = system: experimental allergic encephalomyelitis; details: model for multiple sclerosis; cited from earlier work
p-Myc(T58/S62) = experiment: Immunoblot analysis of Myc phosphorylation; type: cell-based, human
[7] = system: huntingtin accumulation and cell death; details: cell models of HD; cited from earlier work
neurodegeneration = details: fly model of HD; cited from earlier work
CRC cell lines = experiment: Cell viability (CellTiter-Glo): rapamycin-induced growth inhibition in CRC cell lines; type: cell-based; details: Homo sapiens, 120 h; 10 nM rapamycin, 5 days treatment, all examined CRC cell lines; read-out: rapamycin-induced growth inhibition compared to untreated cells
Method: as §1, §2

[8] = bile of treated rats; cited from earlier work
DLD1-PPP2R2B cells [9] = experiment: Cell viability assay in DLD1-PPP2R2B cells; type: cell-based, human; details: 10 nM rapamycin, PPP2R2B re-expressed by Dox vs no Dox, 5 days
Method: as §1, §2

IgE-like antibodies = details: in vivo; cited from earlier work
DLD1-PPP2R2B cells [10] = experiment: Cell cycle analysis by flow cytometry in DLD1-PPP2R2B cells; type: cell-based, human; details: rapamycin added to Dox-induced PPP2R2B expression, 48 h
Method: as §2
The cells were fixed with 70% ethanol and stained with propidium iodide (50 μg/ml) staining. The stained cells were analyzed by FACScalibur (BD Bioscience) and quantified by using CellQuest software (BD bioscience).

HCT116 and DKO cells = experiment: Rapamycin-induced growth inhibition in HCT116 and DKO cells; type: cell-based, human; details: DKO cells compared to parental HCT116 cells
Method: as §1, §2

[11] = animal models; cited from earlier work
DLD1-PPP2R2B cells [12] = experiment: Dense foci / colony formation assay in DLD1-PPP2R2B cells; type: cell-based, human; details: 10 nM rapamycin, PPP2R2B re-expressed by Dox vs no Dox, 14 days
Method: For DLD1 and HCT116 inducible cells foci formation assay, 1×10^4 cells were seeded on 6-well plate with or without treatment with Dox or rapamcycin. Cells were grown for 2 weeks and the surviving colonies were stained with gentian violet after methanol fixation, and visible colonies (>50 cells) were counted.

p-AKT (S473) = experiment: Immunoblot analysis of AKT S473 phosphorylation; type: cell-based, human
cytochrome P-450 3A = details: cited from earlier work
[13] = DLD1 cells serum starved 48 h, then 10 nM rapamycin

In the case of CC[C@@H]1C(=O)N(C)c2cnc(Nc3ccc(C(=O)NC4CCN(C)CC4)cc3OC)nc2N1C1CCCC1 [BI2536], the “apoptosis in combination with BEZ235” value (SW480 and DLD1 cells) is reported as “strong synergistic”, the “growth inhibition in combination with BEZ235” value (DLD1 and SW480 cells [1]) is reported as “strong synergistic growth inhibition” and the apoptosis (HEK-TERV cells) is reported as “selectively induced apoptosis in PDK1-transformed cells”. For the same compound, the “long term colony formation in combination with BEZ235” value (DLD1 and SW480 cells [2]) was “strong synergistic” and the tumor sphere formation (HEK-PDK1 cells) was “blocks the tumor sphere formation; also recorded: abolished the PDK1-driven tumorspheres formation”.

For CO[C@H]1C[C@@H]2CC[C@@H](C)[C@@](O)(O2)C(=O)C(=O)N2CCCC[C@H]2C(=O)O[C@H]([C@H](C)C[C@@H]2CC[C@@H](O)[C@H](OC)C2)CC(=O)[C@H](C)/C=C(\C)[C@@H](O)[C@@H](OC)C(=O)[C@H](C)C[C@H](C)/C=C/C=C/C=C/1C [rapamycin, (3S,6R,7E,9R,10R,12R,14S,15E,17E,19E,21S,23S,26R,27R,34aS)-9,10,12,13,14,21,22,23,24,25,26,27,32,33,34,34a-hexadecahydro-9,27-dihydroxy-3-[(1R)-2-[(1S,3R,4R)-4-hydroxy-3-methoxycyclohexyl]-1-methylethyl]-10,21-dimethoxy-6,8,12,14,20,26-hexamethyl-23,27-epoxy-3H-pyrido[2,1-c][1,4]-oxaazacyclohentriacontine-1,5,11,28,29(4H,6H,31H)-pentone], the “p70S6K and S6 phosphorylation” value [3] was “effectively abolished”, the sensitivity to rapamycin [4] was “much more sensitive” and the “xenograft tumor growth, single treatment” value (DLD1-PPP2R2B cells [5]; rapamycin 4 mg/kg i.p. or Dox 100 mg/kg oral alone, every other day) was “moderately attenuated”. The “xenograft tumor growth, combination of rapamycin and Dox” value (DLD1-PPP2R2B cells [5]; rapamycin 4 mg/kg plus Dox 100 mg/kg (PPP2R2B re-expression)) was “strong tumor growth inhibition”, the efficacy (adjuvant arthritis) was “effective” and the antifungal activity (Candida albicans) was “antifungal activity”. The efficacy [6] was “effective”, the Myc phosphorylation (p-Myc(T58/S62); DKO (DNMTs-deficient HCT116) cells, 10 nM rapamycin) was “did not respond to rapamycin” and the “rapamycin-induced Myc phosphorylation under serum starvation” value (p-Myc(T58/S62); [13]) was “no significant effect”. The “Myc phosphorylation and protein accumulation” value (p-Myc(T58/S62); DLD1 cells, 10 nM rapamycin, 48 hr) was “strong induction of Myc phosphorylation and protein accumulation; also recorded: induces Myc phosphorylation”, the “time at which the Myc response occurred” value (p-Myc(T58/S62); DLD1 cells, 10 nM rapamycin, time course) was 4 h and the Myc phosphorylation (p-Myc(T58/S62); HCT116 cells, 10 nM rapamycin) was “strongly induced”. For the same compound, the Myc phosphorylation (p-Myc(T58/S62); PPP2R2B-expressing cancer cell lines (HepG2, HepB3, 786-O, Caki2, OVCAR3, OVCAR5, SK-OV-3, U2OS)) was “none of these PPP2R2B-expressing cancer cell lines showed an induction of Myc phosphorylation”, the Myc phosphorylation (p-Myc(T58/S62); all examined CRC cell lines, rapamycin 48 hr) was “marked induction of Myc phosphorylation” and the “huntingtin accumulation and cell death” value [7] was “attenuates huntingtin accumulation and cell death”. For the same compound, the neurodegeneration (neurodegeneration) was “protects against neurodegeneration”, the inhibition at 0.01 µM (CRC cell lines) was less than 10% and the “number of hydroxylated and demethylated metabolites detected” value [8] was greater than 16. The “rapamycin-induced growth inhibition (cell viability assay)” value (DLD1-PPP2R2B cells [9]) was “much more effective”, the “formation of IgE-like antibodies” value (IgE-like antibodies) was “effectively inhibited” and the “cell cycle G2 arrest” value (DLD1-PPP2R2B cells [10]) was “markedly augmented”. The “sensitivity to rapamycin treatment” value (HCT116 and DKO cells) was “more sensitive”, the nephrotoxicity [11] was “no nephrotoxicity has been detected” and the “rapamycin-induced growth inhibition (colony formation assay)” value (DLD1-PPP2R2B cells [12]) was “much more effective”. For the same compound, the “AKT S473 phosphorylation” value (p-AKT (S473); CRC cells (DLD1), 10 nM rapamycin) was “induction of AKT S473 phosphorylation”, the “rapamycin-induced AKT S473 phosphorylation under serum starvation” value (p-AKT (S473); [13]) was “abolished” and the “AKT S473 phosphorylation” value (p-AKT (S473); HCT116 and DKO cells, 10 nM rapamycin) was “similarly induced”. The “AKT S473 phosphorylation” value (p-AKT (S473); PPP2R2B-expressing cancer cell lines) was “consistent induction of AKT S473 phosphorylation” and the “number of metabolites formed” value (cytochrome P-450 3A) was “at least six metabolites”.
